Measured values: patent publication US8394832B2, “Methods and compositions using immunomodulatory compounds for the treatment of immunodeficiency disorders” (Celgene Corporation, priority 2004, dated 2013)

Assays:
Format in all cases: cell-based, human
[1] = tested on: CD80; test: FACS analysis of CD80 expression on B cells; settings: normal B cells, 1 μM
Protocol: (§1) Human buffy coat (50 ml) was diluted with 50 ml sterile PBS (Ca^++, Mg^++ free), and mixed gently. A 25 ml aliquot of diluted buffy coat was transferred to each 50 ml centrifuge tube, and Histopaque-1077 (14 ml, #1077-1, Sigma) was gently layered into the bottom of the tube. The sample was centrifuged at 2,000 rpm for 30 min at room temperature. The interface containing mononuclear cells was transferred into 50 ml centrifuge tube, and washed once with PBS (1200 rpm, 5 min). The supernatant was discarded. Cell pellet was resuspended in Miltenyi buffer. Anti-CD19^+ microbeads were added to the suspension (10^7 cells in 80 μl of buffer, 20 μl antibody beads for 10^7 cells) and incubated for 15 min at 4° C. Cell pellet was washed once and resuspended in 1 ml Miltenyi buffer. The cell suspension was added to the magnetic column, washed with 10 ml Miltenyi buffer in the column. CD19^+ cells are released by 1 ml Miltenyi Buffer without magnetic field. CD19^+ cells were washed twice with RPMI complete medium. B cells (2×10^5) were plated in 96 well plate.
B cells were treated with 1 μM 1,3-dioxo-(2,6-dioxopiperidin-3-yl)-4-aminoisoindoline in presence of LPS; CD40 ligand and IL-4; or BAFF for 3 days. The suspension of B cells was washed by PBS once, and incubated with FITC conjugated anti human CD40, PE conjugated anti human CD80, or PerCP-Cy5.5 conjugated anti human HLA-DR for 30 min in the dark. […]

[2] = tested on: CD40; test: FACS analysis of CD40 expression on B cells
Protocol: as §1, with “plate. […]” for “plate.”
In addition to the suppression of IL-4 induced proliferation, CD40+IL-4 induced HLA-DR expression was also examined. B cells were treated by 1,3-dioxo-(2,6-dioxopiperidin-3-yl)-4-aminoisoindoline with CD40L+IL-4 for 72 hours, and the cell surface expression markers CD40 and HLA-DR were measured by FACS. […]

[3] = tested on: STAT6; test: Western blotting of phospho-STAT6 in IL-4 stimulated CD-19 B cells; settings: B cells pretreated 30 minutes, then 100 ng/ml IL-4 for 30 minutes (FIG. 11D)
Protocol: CD-19 B cells (2×10^6/ml) were pretreated with 1,3-dioxo-(2,6-dioxopiperidin-3-yl)-4-aminoisoindoline at 10 μM and 1 μM for 30 minutes. IL-4 (100 ng/ml) was added to cell suspension for 30 minutes, and the cell pellet was washed once by PBS and lysed with 50 μl of the sample buffer. Cell lysates were heated at 100° C. for 5 minutes, and 20 μl of cell lysates were loaded to 4-20% Tris-glycine SDS-PAGE (Invitrogen). The transferred membrane was blotted with 1: 1000 anti-phopho STAT6 antibody (Cell signaling) for overnight at 4° C. prior to secondary HRP conjugated anti rabbit antibody. The signal of the membrane was developed by ECL kit, following the manufacturer's instructions.
Because activation of STAT6 is important in IL-4 induced IgE and IgG1 class switching, whether immunomodulatory compounds could inhibit phosphorylation of STAT6 was investigated. B cells were pretreated with 1,3-dioxo-(2,6-dioxopiperidin-3-yl)-4-aminoisoindoline for 30 minutes, then stimulated with 100 ng/ml of IL-4 for 30 minutes. The activation of STAT6 was assessed by anti-phospho-STAT6 (Tyr 641).

[4] = tested on: B cells; test: Morphological changes of activated B cells (phase contrast microscopy); settings: treated with compound and anti-IgM (FIG. 7B)
Protocol: as §1
B cells were treated with 1,3-dioxo-(2,6-dioxopiperidin-3-yl)-4-aminoisoindoline (FIG. 6) in presence of anti IgM, anti CD40 and IL-4 for 3 days. The images were captured using phase contrast microscopy with MetaMorph software.
Morphological changes also support IMiDs' costimulation of B cells to drive their proliferation. […]

[5] = tested on: TNFα; test: TNFα ELISA of treated B cells; settings: activated CD19+ cells (FIG. 4)
Protocol: as §1, with “plate. […]” for “plate.”
TNFα levels in 1,3-dioxo-(2,6-dioxopiperidin-3-yl)-4-aminoisoindoline or 1-oxo-(2,6-dioxopiperidin-3-yl)-4-aminoisoindoline treated B cells were determined using TNFα ELISA.

[6] = tested on: IL-6; test: Measurement of cytokine IL-6 by Luminex in B cells
Protocol: as §1
B cells were treated with 1,3-dioxo-(2,6-dioxopiperidin-3-yl)-4-aminoisoindoline at 60 μM, 6 μM, 0.6 μM, 0.06 μM, 0.006 μM and 0.0006 μM in presence of anti IgM, anti CD40 and IL-4 for 3 days. Supernatant (25 μl) was collected and incubated with 25 μl anti IL-6 beads for about 1 hour. […] The plate was read on Bio-Plex instrument (Bio-Rad).

[7] = tested on: HLA-DR; test: FACS analysis of HLA-DR expression on B cells
Protocol: as §1
B cells were treated with 1 μM 1,3-dioxo-(2,6-dioxopiperidin-3-yl)-4-aminoisoindoline in presence of LPS; CD40 ligand and IL-4; or BAFF for 3 days. The suspension of B cells was washed by PBS once, and incubated with FITC conjugated anti human CD40, PE conjugated anti human CD80, or PerCP-Cy5.5 conjugated anti human HLA-DR for 30 min in the dark. B cells were subject to FACS analysis using BD FACSAria (BD biosciences).
In addition to the suppression of IL-4 induced proliferation, CD40+IL-4 induced HLA-DR expression was also examined. B cells were treated by 1,3-dioxo-(2,6-dioxopiperidin-3-yl)-4-aminoisoindoline with CD40L+IL-4 for 72 hours, and the cell surface expression markers CD40 and HLA-DR were measured by FACS. […] In contrast, for the B cells that were treated with BAFF, 1,3-dioxo-(2,6-dioxopiperidin-3-yl)-4-aminoisoindoline increased CD40 expression by 60% and HLA-DR expression by 86% (FIG. 11F). The data are consistent with the previous observation that immunomodulatory compounds have no effect on CD40+IL-4 signaling.

[8] = B cells treated with BAFF (FIG. 11F)

Structure (SMILES): Nc1cccc2c1C(=O)N(C1CCC(=O)NC1=O)C2=O (stereo not drawn) [1,3-dioxo-(2,6-dioxopiperidin-3-yl)-4-aminoisoindoline]
- number of B cells expressing CD80 ([1]; CD40 ligand and IL-4, 3 days (FIG. 1B)): increased
- CD80 expression ([1]; in the presence of CD40 ligand and IL-4, 3 days (FIG. 1A)): increased
- increase of CD40 expression [2, 8]: 60%
- CD40 expression ([2]; B cells treated with BAFF or LPS, 1 μM, 3 days (FIG. 2A)): upregulated
- phosphorylation of STAT6 (Tyr 641) [3]: block phosphorylation of STAT6
- morphological changes of B cells [4]: formed large aggregates
- TNFα production in B cells [5]: dose dependently enhance
- IL-6 expression ([6]; compound alone (FIG. 5A)): did not enhance
- IL-6 expression ([6]; in combination with anti IgM, anti CD40 and IL-4, 3 days, 0.0006-60 μM (FIG. 5B)): enhanced
- increase of HLA-DR expression [7, 8]: 86%
- HLA-DR expression ([7]; B cells treated with BAFF or LPS, 1 μM, 3 days (FIG. 2B)): upregulated
- CD40+IL-4 induced HLA-DR expression ([7]; B cells with CD40L+IL-4 for 72 hours (FIG. 11E)): no enhancement
